Source: ChEMBL document CHEMBL5303573, “Mapping human microbiome drug metabolism by gut bacteria and their genes” (Nature, 2019)

What was measured:
[1] = The drug is tested on Bifidobacterium breve strain: DSM20213 for biotransformation. The drug concentrations were measured before and after a 12-h incubation by liquid-chromatography-coupled mass spectrometry (LC–MS); conditions: 2 µM
[2] = The drug is tested on Bifidobacterium longum subsp. Infantis strain: CCUG52486 for biotransformation. The drug concentrations were measured before and after a 12-h incubation by liquid-chromatography-coupled mass spectrometry (LC–MS); conditions: 2 µM
[3] = The drug is tested on Collinsella aerofaciens strain: ATCC25986 for biotransformation. The drug concentrations were measured before and after a 12-h incubation by liquid-chromatography-coupled mass spectrometry (LC–MS); conditions: 2 µM
[4] = The drug is tested on Bacteroides finegoldii strain: DSM17565 for biotransformation. The drug concentrations were measured before and after a 12-h incubation by liquid-chromatography-coupled mass spectrometry (LC–MS); conditions: 2 µM
[5] = The drug is tested on Bacteroides fragilis strain: HMW610 for biotransformation. The drug concentrations were measured before and after a 12-h incubation by liquid-chromatography-coupled mass spectrometry (LC–MS); conditions: 2 µM
[6] = The drug is tested on Bacteroides fragilis strain: HMW615 for biotransformation. The drug concentrations were measured before and after a 12-h incubation by liquid-chromatography-coupled mass spectrometry (LC–MS); conditions: 2 µM
[7] = The drug is tested on Bacteroides uniformis strain: ATCC8492 for biotransformation. The drug concentrations were measured before and after a 12-h incubation by liquid-chromatography-coupled mass spectrometry (LC–MS); conditions: 2 µM
[8] = The drug is tested on Anaerococcus hydrogenalis strain: DSM7454 for biotransformation. The drug concentrations were measured before and after a 12-h incubation by liquid-chromatography-coupled mass spectrometry (LC–MS); conditions: 2 µM
[9] = The drug is tested on Anaerotruncus colihominis strain: DSM17241 for biotransformation. The drug concentrations were measured before and after a 12-h incubation by liquid-chromatography-coupled mass spectrometry (LC–MS); conditions: 2 µM
[10] = The drug is tested on Clostridium asparagiforme strain: DSM15981 for biotransformation. The drug concentrations were measured before and after a 12-h incubation by liquid-chromatography-coupled mass spectrometry (LC–MS); type: ADME; set-up: dose 2 uM, timepoint 0 vs 12 hours; conditions: enterocloster asparagiformis, 2 µM
[11] = The drug is tested on Coprococcus comes strain: ATCC27758 for biotransformation. The drug concentrations were measured before and after a 12-h incubation by liquid-chromatography-coupled mass spectrometry (LC–MS); type: ADME; set-up: dose 2 uM, timepoint 0 vs 12 hours; conditions: 2 µM
[12] = The drug is tested on Dorea formicigenerans strain: ATCC27755 for biotransformation. The drug concentrations were measured before and after a 12-h incubation by liquid-chromatography-coupled mass spectrometry (LC–MS); conditions: 2 µM
[13] = The drug is tested on Eubacterium hallii strain: DSM3353 for biotransformation. The drug concentrations were measured before and after a 12-h incubation by liquid-chromatography-coupled mass spectrometry (LC–MS); conditions: anaerobutyricum hallii, 2 µM
[14] = The drug is tested on Eubacterium rectale strain: ATCC33656 for biotransformation. The drug concentrations were measured before and after a 12-h incubation by liquid-chromatography-coupled mass spectrometry (LC–MS); conditions: agathobacter rectalis, 2 µM
[15] = The drug is tested on Escherichia coli strain: BW25113 for biotransformation. The drug concentrations were measured before and after a 12-h incubation by liquid-chromatography-coupled mass spectrometry (LC–MS); conditions: 2 µM
[16] = The drug is tested on Providencia stuartii strain: ATCC25827 for biotransformation. The drug concentrations were measured before and after a 12-h incubation by liquid-chromatography-coupled mass spectrometry (LC–MS); conditions: 2 µM
[17] = bacteroides fragilis, 12 h, 2 µM
Description: The drug is tested on Bacteroides fragilis strain: 3397 (T10) for biotransformation. The drug concentrations were measured before and after a 12-h incubation by liquid-chromatography-coupled mass spectrometry (LC–MS)

[18] = The drug is tested on Bacteroides dorei strain: DSM17855 for biotransformation. The drug concentrations were measured before and after a 12-h incubation by liquid-chromatography-coupled mass spectrometry (LC–MS); conditions: phocaeicola dorei, 2 µM
[19] = The drug is tested on Subdoligranulum variabile strain: DSM15176 for biotransformation. The drug concentrations were measured before and after a 12-h incubation by liquid-chromatography-coupled mass spectrometry (LC–MS); conditions: 2 µM
[20] = parabacteroides distasonis, 12 h, 2 µM
Description: The drug is tested on Parabacteroides distasonis strain: ATCC8503 for biotransformation. The drug concentrations were measured before and after a 12-h incubation by liquid-chromatography-coupled mass spectrometry (LC–MS)

SMILES	Bacterial Biotransformation [1]	Bacterial Biotransformation [2]	Bacterial Biotransformation [3]	Bacterial Biotransformation [4]	Bacterial Biotransformation [5]	Bacterial Biotransformation [6]	Bacterial Biotransformation [7]	Bacterial Biotransformation [8]	Bacterial Biotransformation [9]	Bacterial Biotransformation [10]	Bacterial Biotransformation [11]	Bacterial Biotransformation [12]	Bacterial Biotransformation [13]	Bacterial Biotransformation [14]	Bacterial Biotransformation [15]	Bacterial Biotransformation [16]	Bacterial Biotransformation [17]	Bacterial Biotransformation [18]	Bacterial Biotransformation [19]	Bacterial Biotransformation [20]
CC(C)NCC(O)COc1ccc(CCOCC2CC2)cc1 (configuration not stated) [BETAXOLOL]	Compound NOT metabolized	Compound NOT metabolized	Compound NOT metabolized	Compound NOT metabolized	Compound NOT metabolized	Compound NOT metabolized	Compound NOT metabolized	Compound NOT metabolized	Compound NOT metabolized	Compound NOT metabolized	Compound NOT metabolized	Compound NOT metabolized	Compound NOT metabolized	Compound NOT metabolized	Compound NOT metabolized	Compound NOT metabolized	Compound NOT metabolized			
CCC1(c2ccc(N)cc2)CCC(=O)NC1=O (configuration not stated) [AMINOGLUTETHIMIDE]	Compound NOT metabolized	Compound NOT metabolized	Compound NOT metabolized	Compound NOT metabolized	Compound NOT metabolized	Compound NOT metabolized		Compound NOT metabolized	Compound NOT metabolized	Compound NOT metabolized	Compound NOT metabolized	Compound NOT metabolized	Compound NOT metabolized	Compound NOT metabolized	Compound NOT metabolized	Compound NOT metabolized		Compound NOT metabolized		
CN(C)CCc1c[nH]c2ccc(CS(=O)(=O)N3CCCC3)cc12 [ALMOTRIPTAN]	Compound NOT metabolized	Compound NOT metabolized	Compound NOT metabolized	Compound NOT metabolized			Compound NOT metabolized	Compound NOT metabolized	Compound NOT metabolized	Compound NOT metabolized	Compound NOT metabolized	Compound NOT metabolized	Compound NOT metabolized	Compound NOT metabolized		Compound NOT metabolized	Compound NOT metabolized		Compound NOT metabolized	Compound NOT metabolized
Nc1ccc(/N=N/c2ccccc2)c(N)n1 [PHENAZOPYRIDINE]	Compound metabolized		Compound metabolized	Compound metabolized	Compound metabolized	Compound metabolized	Compound metabolized	Compound metabolized	Compound metabolized	Compound metabolized	Compound metabolized	Compound metabolized	Compound metabolized	Compound metabolized		Compound NOT metabolized	Compound metabolized	Compound metabolized	Compound metabolized	Compound metabolized
CCCC1O[C@@H]2C[C@H]3[C@@H]4CCC5=CC(=O)C=C[C@]5(C)[C@H]4[C@@H](O)C[C@]3(C)[C@]2(C(=O)CO)O1 (some centres not stated) [BUDESONIDE]	Compound NOT metabolized	Compound NOT metabolized	Compound NOT metabolized	Compound NOT metabolized	Compound metabolized	Compound metabolized		Compound NOT metabolized	Compound NOT metabolized	Compound metabolized	Compound NOT metabolized	Compound NOT metabolized	Compound NOT metabolized	Compound NOT metabolized	Compound NOT metabolized		Compound metabolized	Compound metabolized		Compound NOT metabolized
COc1cc2c(c(OC)c1OC)-c1ccc(OC)c(=O)cc1[C@@H](NC(C)=O)CC2 [COLCHICINE]	Compound NOT metabolized	Compound NOT metabolized	Compound NOT metabolized		Compound metabolized		Compound metabolized	Compound NOT metabolized	Compound NOT metabolized	Compound NOT metabolized	Compound NOT metabolized	Compound NOT metabolized	Compound NOT metabolized	Compound NOT metabolized		Compound NOT metabolized	Compound metabolized	Compound metabolized	Compound NOT metabolized	Compound metabolized
CSc1ccc2c(c1)C(N1CCN(C)CC1)Cc1ccccc1S2.O=C(O)/C=C\C(=O)O (configuration not stated)	Compound metabolized	Compound NOT metabolized	Compound NOT metabolized	Compound NOT metabolized	Compound NOT metabolized		Compound metabolized		Compound metabolized	Compound NOT metabolized		Compound NOT metabolized	Compound NOT metabolized	Compound NOT metabolized		Compound NOT metabolized	Compound NOT metabolized	Compound NOT metabolized	Compound NOT metabolized	Compound metabolized
C=CCc1ccccc1OCC(O)CNC(C)C (configuration not stated) [ALPRENOLOL]	Compound NOT metabolized		Compound NOT metabolized	Compound NOT metabolized			Compound NOT metabolized	Compound NOT metabolized	Compound NOT metabolized	Compound NOT metabolized	Compound NOT metabolized	Compound NOT metabolized	Compound NOT metabolized	Compound NOT metabolized		Compound NOT metabolized	Compound NOT metabolized	Compound NOT metabolized	Compound NOT metabolized	
